The results in this text go back to PubChem BioAssay (NCI).

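1) Cells in 96-well plates. 2) Compound, 48 h, 5 concentrations. 3) Linear interpolation between surrounding doses. 4) Unreached endpoint = highest concentration. The concentration for 50% growth inhibition is given as GI50. At the TGI there is no net growth.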

Test in all cases: DTP human tumour cell line panel, 48 h
Experiment [1] has as its system SK-MEL-5 melanoma.
In experiment [2] the test system is COLO 205 colon.
Experiment [3] relates to SK-MEL-28 melanoma.
Experiment [4] has as its system MOLT-4 leukemia.
Experiment [5] relates to M14 melanoma.
The test system of experiment [6] is NCI-H226 lung.
Experiment [7] deals with OVCAR-8 ovarian.
The test system of experiment [8] is A549 NSCLC.
In experiment [9] the test system is PC-3 prostate.
In experiment [10] the test system is HS 578T breast.

Turning to `CCN(CC)CC(C(=O)Nc1c(C)cccc1C)/C(C)=N/NC(N)=S` (stereo not drawn), the concentration for total growth inhibition (TGI) in experiment [1], in experiment [2], in experiment [3], in experiment [4], in experiment [5] and in experiment [6] was greater than 100 µM throughout. For the same molecule, the total growth inhibition concentration (TGI) in experiment [7] and in [8] was greater than 100 µM each time.

As to `CCc1cccc(C(C)C)c1C1C(=O)C(=O)N(c2nc3ccccc3s2)C(=O)C1=O`, the TGI in experiment [1], in experiment [2], in experiment [3], in experiment [4], in experiment [5] and in experiment [6] was greater than 100 µM each time. Further, the TGI in experiment [8] is greater than 100 µM.

On to `Nc1n[nH]c(=O)c2c1c(Br)cn2C1OC(CO)C(O)C1O` (stereo not drawn), for which the TGI is 45.4 µM in experiment [1]; 28.1 µM in [2]; 26.6 µM in experiment [3]; 9.3 µM in experiment [4]; 30.1 µM in experiment [5]; 59.3 µM in experiment [6]. Moreover, the TGI in experiment [7] was 6.23 µM; in experiment [8], greater than 100 µM.

Regarding `Cc1nc2c(=O)n(C)c(=O)nc-2n(-c2ccc(Cl)cc2)c1C`, the TGI in [1], in experiment [2], in experiment [3], in experiment [5], in experiment [6] and in experiment [7] was greater than 100 µM each time. The TGI in experiment [8] was greater than 100 µM.

With `O=C1c2ccccc2CC1C1(O)C(=O)Nc2c(Cl)cc(Cl)cc21` (stereo not drawn), the total growth inhibition concentration (TGI) in [1], in experiment [2], in experiment [3], in experiment [4], in experiment [5] and in experiment [6] was greater than 100 µM in each case. The TGI in experiment [7] and in experiment [8] was greater than 100 µM each time.

With `COC(=O)c1c(OC(=O)c2ccccc2)noc1CC(=O)OC1C=CCCC1` (stereo not drawn), the concentration for total growth inhibition (TGI) in experiment [1] is 81.7 µM; in experiment [2], greater than 100 µM; in experiment [3] it was greater than 100 µM; in experiment [4], greater than 100 µM; in experiment [5] it was greater than 100 µM; in [6], greater than 100 µM. The TGI in experiment [7] and in [8] was greater than 100 µM each time.

On to `CC(=O)OC12CCCCC1C1(CCCC1)NC2=O` (stereo not drawn), for which the TGI in [3], in experiment [4], in [5], in [6], in experiment [7] and in experiment [8] was greater than 100 µM each time.

`Cc1ccc(S(=O)(=O)c2ccccn2)cc1`: the concentration for total growth inhibition (TGI) in experiment [1], in [2], in [3], in experiment [4], in experiment [5] and in [6] was greater than 100 µM each time. Further, the TGI in [7] and in experiment [8] was greater than 100 µM in each case.

`Cc1nn(C(=O)CC(=O)Nc2ccccc2Cl)c(C)c1N=Nc1ccccc1Cl`: the total growth inhibition concentration (TGI) in experiment [1], in [2], in [3], in experiment [4], in experiment [5] and in experiment [7] was greater than 100 µM in each case. The same molecule gave a TGI in experiment [8] greater than 100 µM.

With `O=S(O)CCCSSCCCCSSCCCS(=O)O`, the TGI in experiment [1], in experiment [2], in experiment [3], in experiment [4], in experiment [5] and in experiment [7] was greater than 100 µM each time. This molecule gave a TGI in experiment [8] greater than 100 µM.

Turning to `CC/C(=C(\c1ccccc1)c1ccc(OCC[N+](C)(C)C)cc1)c1ccccc1`, the TGI in [1] was found to be 16.4 µM; in experiment [2], 20.4 µM; in experiment [3] it was 22.2 µM; in experiment [4], 36.4 µM; in experiment [5], 30.1 µM; in experiment [6], 26.7 µM. The values for the TGI in experiment [7] and in experiment [8] were 37.9 µM and 35.3 µM, respectively.

Regarding `CCCCCC1C2C(=O)NC(=O)C1C(=O)NC2=O` (stereo not drawn), the TGI in experiment [1], in [2], in [3], in [4], in [5] and in experiment [6] was greater than 100 µM throughout. Also, the total growth inhibition concentration (TGI) in experiment [7] and in [8] was greater than 100 µM in each case.

In the case of `O=C1c2cccc3cc4ccccc4c(c23)C(=O)N1CCCNCCNCCCN1C(=O)c2cccc3cc4ccccc4c(c23)C1=O`, the TGI in experiment [1] stood at 1.39 µM; in [9], 1.43 µM; in experiment [4], 1.36 µM; in [5], 2.21 µM; in [7] it was 0.337 µM; in experiment [10], 1.98 µM. The total growth inhibition concentration (TGI) in experiment [8] came out at 0.373 µM.

Take `Cc1ccc(S(=O)(=O)NC2(C=O)CCC(C(C)(C)C)CC2)cc1` (stereo not drawn): the TGI in experiment [1] is 47.2 µM; in experiment [2] it was 73.3 µM; in experiment [4] it was 41.3 µM; in [5], greater than 100 µM; in [6], greater than 100 µM; in [7], greater than 100 µM. Also, in experiment [8], the total growth inhibition concentration (TGI) was greater than 100 µM.

Regarding `COC(=O)[C@@H](C)C[C@H](Cc1ccccc1)NC(=O)c1cccc([C@@H](C[C@H](C(C)C)N(C)C(=O)[C@@H](NC(=O)[C@H]2CCCCN2C)C(C)C)OC(C)=O)n1`, the concentration for 50% growth inhibition (GI50) in experiment [1] is less than 0.00167 µM; in experiment [9], less than 0.00167 µM; in [4], 0.00815 µM; in experiment [5], less than 0.00167 µM; in experiment [7] it was 0.00243 µM; in experiment [10] it was 0.00342 µM. The 50% growth inhibitory concentration (GI50) in experiment [8] was 0.00591 µM. Moreover, the total growth inhibition concentration (TGI) in [1] is 0.0252 µM; in [9] it was greater than 16.7 µM; in experiment [4], greater than 16.7 µM; in experiment [5] it was 0.224 µM; in experiment [7], greater than 16.7 µM; in [10], greater than 11.8 µM. In [8], this molecule gave a concentration for total growth inhibition (TGI) greater than 16.7 µM.

With `COc1ccc(/C=C(\NC(=O)c2ccccc2)c2nc3ccccc3[nH]2)cc1`, the total growth inhibition concentration (TGI) in experiment [1] was 29 µM; in [2], 75.8 µM; in [3], 37.5 µM; in [4] it was 83.1 µM; in experiment [5], greater than 100 µM; in experiment [6], greater than 100 µM. The TGI in [7] and in [8] was greater than 100 µM in each case.

On to `CC(=O)/C=C\C(=O)NNS(=O)(=O)c1ccc(C)cc1`, for which the TGI in [1], in experiment [2], in experiment [3], in experiment [4], in experiment [5] and in experiment [6] was greater than 100 µM in each case. Also, the TGI in [7] and in [8] was greater than 100 µM in each case.

In the case of `O=C(Nc1cccc(Cl)c1)c1cc2cc(N=Nc3ccc(Br)cc3)ccc2oc1=O`, the TGI in [1] is greater than 100 µM; in [2], greater than 100 µM; in experiment [3], greater than 100 µM; in experiment [4] it was 77.7 µM; in experiment [5] it was 52.9 µM; in experiment [7], greater than 100 µM. In experiment [8], this molecule showed a concentration for total growth inhibition (TGI) greater than 100 µM.

Regarding `O=C(Cc1nc2ccccc2s1)C(=O)Nc1ccccc1C(F)(F)F`, the TGI in experiment [1], in [2], in [3], in experiment [4], in experiment [5] and in experiment [6] was greater than 100 µM in each case. Besides, the TGI in experiment [7] and in experiment [8] was greater than 100 µM in each case.

For the molecule `Nc1cc2[nH]c(=O)c3cc(Cl)ccc3c2cc1Cl`, the total growth inhibition concentration (TGI) in experiment [1] was 27 µM; in [2], greater than 100 µM; in [3], greater than 100 µM; in experiment [4] it was greater than 100 µM; in [5], greater than 100 µM; in [6], 28.1 µM. Moreover, the TGI in [7] was 13.5 µM; in experiment [10] it was greater than 100 µM; in [8], 44.7 µM.

Regarding `Cc1cn2cc(-c3ccncc3)nc2s1`, the concentration for total growth inhibition (TGI) in experiment [1], in [2], in experiment [3], in [4], in experiment [5] and in [6] was greater than 100 µM each time. Besides, the TGI in [7] and in [8] was greater than 100 µM in each case.

In the case of `O=C1OC2C(O)COC2(OCc2c[nH]c3ccccc23)C1O` (stereo not drawn) (tested in a mixture with another compound), the total growth inhibition concentration (TGI) in experiment [1], in experiment [2], in experiment [4], in [5], in experiment [6] and in experiment [7] was greater than 100 µM in each case. The molecule also displayed a total growth inhibition concentration (TGI) in [8] greater than 100 µM.

On to `CC(=O)NC1C(=O)CC(c2ccccc2)N(C)C1c1ccccc1` (stereo not drawn), for which the TGI in [1], in experiment [2], in experiment [3], in experiment [4], in experiment [5] and in [6] was greater than 100 µM in each case. In addition, the concentration for total growth inhibition (TGI) in experiment [7] and in [8] was greater than 100 µM throughout.

For `CC1CCCC2(O1)OC1CC(=O)OC1C1=C2C(=O)c2ccccc2C1=O` (stereo not drawn), the concentration for total growth inhibition (TGI) in experiment [1] came out at 4.14 µM; in experiment [2], 5.19 µM; in experiment [3], 4.75 µM; in [4], 4.09 µM; in experiment [5] it was 7.89 µM; in experiment [6] it was 4.51 µM. For the same molecule, the TGI in [7] was 7.06 µM; in [8], 35.5 µM.

Consider `O=c1c2ccccc2nc(-c2ccccc2Cl)n1NC1OC(CO)C(O)C(O)C1O` (stereo not drawn), for which the total growth inhibition concentration (TGI) in experiment [1], in [2], in [3], in experiment [4], in [5] and in [6] was greater than 100 µM in each case. Besides, the concentration for total growth inhibition (TGI) in [7] and in experiment [8] was greater than 100 µM in each case.

As for `COCC(O)CN1C(N)=NC(O)C1O` (stereo not drawn), the TGI in [1], in experiment [2], in [3], in experiment [5], in experiment [6] and in experiment [7] was greater than 100 µM in each case. In addition, the total growth inhibition concentration (TGI) in [8] is greater than 100 µM.

As to `CCOc1ccccc1Nc1nc(C)c(C(=O)CC(=O)C(=O)Nc2ccccc2)s1`, the TGI in experiment [1] was greater than 100 µM; in experiment [2], greater than 100 µM; in [3], greater than 100 µM; in experiment [4] it was 78.3 µM; in experiment [5], greater than 100 µM; in [6], greater than 100 µM. The TGI in experiment [7] and in [8] was greater than 100 µM in each case.

For `COc1cc(C2C(C(=O)Nc3ccc(Cl)c(Cl)c3)=C(C)NC(C)=C2C(=O)Nc2ccc(Cl)c(Cl)c2)ccc1O`, the TGI was determined as 25.5 µM in experiment [1]; 30.2 µM in [2]; 27.3 µM in experiment [3]; 26.9 µM in experiment [4]; 26.9 µM in experiment [5]; 40.8 µM in experiment [6]. Also, the figures for the TGI in experiment [7] and in experiment [8] were 40.3 µM and 31.5 µM, respectively.

As for `O=C1[C@@H]2C3C=CC([C@H]4C(=O)N(CO)C(=O)[C@@H]34)[C@@H]2C(=O)N1CO`, the TGI in experiment [1] was greater than 100 µM; in [2], greater than 77.8 µM; in experiment [3], greater than 100 µM; in experiment [4] it was greater than 100 µM; in experiment [5] it was greater than 75.2 µM; in experiment [6] it was greater than 100 µM. Further, the figures for the TGI in [7] and in experiment [8] were 97.6 µM and greater than 100 µM, respectively.

With `S=C(N/N=C/c1ccccc1)NC1CC(c2ccccc2)Oc2ccccc21` (stereo not drawn), the total growth inhibition concentration (TGI) in experiment [1] is 65.8 µM; in [2], greater than 100 µM; in experiment [3] it was greater than 100 µM; in experiment [5] it was greater than 100 µM; in experiment [6], greater than 100 µM; in experiment [7], greater than 100 µM. Further, the concentration for total growth inhibition (TGI) in experiment [8] was greater than 100 µM.

As for `O=[N+]([O-])c1ccc(-c2ccc(C3=Nn4c(nnc4-c4ccc(Cl)cc4)SC3)o2)cc1`, the TGI in experiment [1], in [2], in [3], in experiment [4], in experiment [5] and in experiment [6] was greater than 100 µM throughout. Besides, the concentration for total growth inhibition (TGI) in experiment [7] and in experiment [8] was greater than 100 µM throughout.
